Measurements as given in patent US20190124918A1, “BIOFILM FORMATION INHIBITOR AND BIOFILM FORMATION INHIBITING COMPOSITION” (KAO CORPORATION, priority 2016, published 2019).

Assays:
[1] = tested on: Pseudomonas PAO1 strain (ATCC 15692); assay: Amount of biofilm formed (crystal violet, OD570), 96-well microplate culture; assay type: cell-based
Description: Pseudomonas PAO1 strain (ATCC 15692) was subjected to stationary culture performed in LB culture medium (Lysogeny Broth; manufactured by Becton Dickinson) at 37° C. for 24 hours. The turbidity (OD600) of the culture solution was measured. The culture solution was diluted with Mueller Hinton Broth (BBL made) to prepare a suspension (15 mL) having a turbidity (OD600) of 1/10^6. […]
(§1) Growth inhibition rates relative to the control (ethanol alone) were calculated based on OD600 values measured and in accordance with the following expression. In addition, biofilm (BF) formation inhibition rates relative to the control (ethanol alone) were calculated based on OD570 values and in accordance with the following expression:
BF inhibition (%)={1−(compound addition group OD570/control group OD570)}×100
(§2) As a control, an ethanol solvent alone was used (EtOH control). The concentrations of test compounds in the ethanol solution were as follows: test compound 1: 20 mM, test compounds 2 to 7: 100 mM. To each of the wells of a 96-well microplate (351172; manufactured by Japan Becton Dickinson), 6 μL of DMSO (Tokyo Kasei) and an ethanol solution of each test compound (1 to 8 μL) were added and then the microplates were allowed to stand still at room temperature for 5 hours to evaporate ethanol. A suspension solution of a Pseudomonas microbe prepared in the same procedure as in Test Example 1, 1) was added in an amount of 145 μL per well and culture was initiated.
(§3) After the 96-well microplate was subjected to stationary culture at 30° C. for 24 hours, turbidity (OD600) was measured to check growth. Subsequently, individual wells were stained with 0.1% crystal violet and thoroughly washed twice with physiological saline. To each well, 200 μL of ethanol was added and the absorbance (OD570) was measured to obtain the amount of the biofilm formed. The growth inhibition rate and biofilm (BF) formation inhibition rate were calculated based on OD600 and OD570 values measured and in accordance with the expressions used in Test Example 2.

[2] = tested on: Pseudomonas PAO1 strain (ATCC 15692); assay: Growth of test microbe (turbidity OD600), 96-well microplate culture; assay type: cell-based
Description: Pseudomonas PAO1 strain (ATCC 15692) was subjected to stationary culture performed in LB culture medium (Lysogeny Broth; manufactured by Becton Dickinson) at 37° C. for 24 hours. The turbidity (OD600) of the culture solution was measured. The culture solution was diluted with Mueller Hinton Broth (BBL made) to prepare a suspension (15 mL) having a turbidity (OD600) of 1/10^6.
To each of the wells of a 96-well microplate (351172; manufactured by Japan Becton Dickinson), 6 μL of DMSO (Tokyo Chemical Industry Co. Ltd) and an ethanol solution (1 μL, 3 μL or 5 μL) of a test compound were added. After that, the microplate was allowed to stand still at room temperature for 5 hours to evaporate ethanol. The suspension of Pseudomonas microbe prepared in the above step 1) was added in an amount of 145 μL per well and culture was initiated. As the test compound, 2-methylhydroquinone (Sigma Aldrich) and p-toluquinone (Tokyo Kasei) were used. As a reference compound, sodium hypochlorite (manufactured by Wako Pure Chemical Industries Ltd.) was used. As a control, an ethanol solvent (EtOH control) alone was used. The concentration of the test compound in the ethanol solution is 1,000 ppm or 10,000 ppm and the final concentration of the test compound in the culture solution was about from 7 to 333 ppm.
After the 96-well microplate was subjected to stationary culture performed at 30° C. for 24 hours, turbidity (OD600) was measured to check growth. Subsequently, individual wells were stained with 0.1% crystal violet and thoroughly washed twice with physiological saline. To each well, 200 μL of ethanol was added and the absorbance (OD570) was measured to obtain the amount of the biofilm formed.
Compounds listed in Table 3 were each added to a test microbe and culture was conducted by the same procedure as in Test Example 1 and the amount of growth (OD600) and the amount of biofilm formed (OD570) were measured. For compounds a, b, c, f, h, i, J and k, 20 mM ethanol solutions were prepared; whereas for compounds d, e, g, 5 mM ethanol solutions were prepared. The solutions were each added to a 96-well microplate in an amount of 1 to 8 μL and evaluation was made. The final concentrations of the individual compounds are described in Table 3.
as §1
Growth inhibition (%)=(1−(compound addition group OD600/control group OD600))×100
as §2, §3

[3] = Test Example 3, final concentration 83 ppm
[4] = Test Example 3, final concentration 165 ppm
[5] = Test Example 3, final concentration 331 ppm
[6] = Test Example 3, final concentration 496 ppm
[7] = Test Example 3, final concentration 579 ppm
[8] = Test Example 3, final concentration 661 ppm
[9] = Pseudomonas, read-out: BF inhibition (%)
[10] = Pseudomonas, read-out: Growth inhibition (%)

Cc1cc(O)cc(O)c1 [Compound 2, 5-Methylresocinol]
BF inhibition (%) [1, 3]: — (No growth inhibition or no BF inhibition)
BF inhibition (%) [1, 4]: — (No growth inhibition or no BF inhibition)
BF inhibition (%) [1, 5]: — (No growth inhibition or no BF inhibition)
BF inhibition (%) [1, 6]: 57.5%
BF inhibition (%) [1, 7]: 57.7%
BF inhibition (%) [1, 8]: 70.2%
Growth inhibition (%) [2, 3]: — (No growth inhibition or no BF inhibition)
Growth inhibition (%) [2, 4]: 10.4%
Growth inhibition (%) [2, 5]: — (No growth inhibition or no BF inhibition)
Growth inhibition (%) [2, 6]: — (No growth inhibition or no BF inhibition)
Growth inhibition (%) [2, 7]: 17.6%
Growth inhibition (%) [2, 8]: — (No growth inhibition or no BF inhibition)

CCCCCc1cc(O)cc(O)c1 [Compound 3, 5-Pentylresorcinol]
inhibition at 120 ppm [1, 9]: 0.9%
inhibition at 240 ppm [1, 9]: < 0%
inhibition at 480 ppm [1, 9]: 50.6%
inhibition at 720 ppm [1, 9]: 42.3%
inhibition at 840 ppm [1, 9]: 85%
inhibition at 960 ppm [1, 9]: 86.1%
inhibition at 120 ppm [2, 10]: 7.7%
inhibition at 240 ppm [2, 10]: < 0%
inhibition at 480 ppm [2, 10]: < 0%
inhibition at 720 ppm [2, 10]: < 0%
inhibition at 840 ppm [2, 10]: 17%
inhibition at 960 ppm [2, 10]: 4.9%

CCCc1c(O)cccc1O [Compound 4, 2-Propylresorcinol]
inhibition at 101 ppm ([1]; Pseudomonas, Test Example 3, final concentration 101 ppm, read-out: BF inhibition (%)): < 0%
inhibition at 203 ppm ([1]; Pseudomonas, Test Example 3, final concentration 203 ppm, read-out: BF inhibition (%)): < 0%
inhibition at 405 ppm ([1]; Pseudomonas, Test Example 3, final concentration 405 ppm, read-out: BF inhibition (%)): < 0%
inhibition at 608 ppm ([1]; Pseudomonas, Test Example 3, final concentration 608 ppm, read-out: BF inhibition (%)): 7.9%
inhibition at 709 ppm ([1]; Pseudomonas, Test Example 3, final concentration 709 ppm, read-out: BF inhibition (%)): 21.7%
inhibition at 810 ppm ([1]; Pseudomonas, Test Example 3, final concentration 810 ppm, read-out: BF inhibition (%)): 14.1%
inhibition at 101 ppm ([2]; Pseudomonas, Test Example 3, final concentration 101 ppm): < 0%
inhibition at 203 ppm ([2]; Pseudomonas, Test Example 3, final concentration 203 ppm): 20.5%
inhibition at 405 ppm ([2]; Pseudomonas, Test Example 3, final concentration 405 ppm): < 0%
inhibition at 608 ppm ([2]; Pseudomonas, Test Example 3, final concentration 608 ppm): 6.8%
inhibition at 709 ppm ([2]; Pseudomonas, Test Example 3, final concentration 709 ppm): 16.4%
inhibition at 810 ppm ([2]; Pseudomonas, Test Example 3, final concentration 810 ppm): < 0%

Cc1cc(O)c(C)c(O)c1 [Compound 5, 2,5-Dimethylresorcinol]
inhibition at 92 ppm [1, 9]: < 0%
inhibition at 184 ppm [1, 9]: 0.4%
inhibition at 368 ppm [1, 9]: < 0%
inhibition at 552 ppm [1, 9]: 10.4%
inhibition at 644 ppm [1, 9]: 20.4%
inhibition at 736 ppm [1, 9]: 55%
inhibition at 92 ppm [2, 10]: < 0%
inhibition at 184 ppm [2, 10]: < 0%
inhibition at 368 ppm [2, 10]: < 0%
inhibition at 552 ppm [2, 10]: 9.3%
inhibition at 644 ppm [2, 10]: 14%
inhibition at 736 ppm [2, 10]: 11.1%
